Assay results reported in patent US4343805A, “Heterocyclic compounds” (John Wyeth & Brother Limited, priority 1978, dated 1982).

Columns and labels:
[1] = tested on: Female rats rendered hypertensive (unilateral nephrectomy, deoxycorticosterone acetate); assay: Anti-hypertensive activity, Procedure B (deoxycorticosterone acetate hypertensive rats, systolic pressure); format: in vivo, rat; conditions: 50 mg/kg orally, DOCA hypertensive female rats
Method: (§1) Some compounds of the invention were tested for anti-hypertensive activity by the following procedures.
Female rats are rendered hypertensive by unilateral nephrectomy and the s.c. implantation of a pellet containing 30 mg of deoxycorticosterone acetate. The drinking water is replaced by normal saline ad lib for the first four weeks following preparation. Blood pressures stabilise at a hypertensive level after 6 weeks. Systolic pressure is measured indirectly before dosing with a test compound using an E and M pneumatic pulse transducer and a Devices MX2 recorder. Groups of 4 rats are dosed orally with suspensions or solutions of the test compound in 0.5% hydroxypropyl-methyl-cellulose 0.9% saline vehicle. Blood pressures are recorded again at 2, 6 and 24 hours and the results, expressed as a percentage of the pre-dose values compared with those of a similar group of rats receiving vehicle alone.

[2] = tested on: Anti-secretory (gastric secretion volume); assay: Anti-secretory test (Shay et al); format: in vivo
Method: (§2) Anti-ulcer activity was determined by the stress-induced erosion test of Senay & Levine, Proc. Soc. Exp. Biol. Med., 124, 1221-3(1967) and anti-secretory activity by the test of H. Shay, D. Sun and H. Greenstein, Gastroentarology, 1954, 26, 903-13 as exemplified by Beattie et al J. Med. Chem., 20, 714 (1977). […] However, some compounds show activity in tests for anti-hypertensive activity.

Stress-induced erosion = Stress-induced erosion test (Senay & Levine), anti-ulcer activity; format: in vivo
Method: as §2

[3] = tested on: male spontaneously hypertensive rats; assay: Anti-hypertensive activity, Procedure A (spontaneously hypertensive rats, systolic pressure); format: in vivo, rat
Method: as §1
Systolic pressure of male spontaneously hypertensive rats is measured by an indirect technique using the Decker Caudal Plethylsmograph or other appropriate sensor. Groups usually consist of 4 rats. Drugs are usually administered orally. Pressures are usually read prior to drug administration and at 1.5, 4 and 24 hours thereafter. The schedule may be altered depending upon the behaviour of the drug.

SMILES | Anti-secretory (Shay et al), % change in volume ([2]; Dose 30 mg/kg) [%] | inhibition in vivo at 100 mg/kg (Stress-induced erosion) [%] | also measured
Cc1[nH]cnc1CSc1cccc[n+]1C [Example 1, 1-Methyl-2(4-[5-methylimidazolyl]methylthio)pyridinium chloride] | -65 | 69 | Anti-hypertensive activity (Procedure B) [1]: inactive; Anti-secretory (Shay et al), % change in volume ([2]; Dose 10 mg/kg): -43%
C[n+]1ccccc1SCc1ccccn1 [Example 2, 1-Methyl-2(2-pyridyl)methylthio)pyridinium chloride] | -31 | 50 | 
C[n+]1ccccc1SCc1c[nH]cn1 [Example 3, 1-Methyl-2(4-imidazolylmethylthio)pyridinium chloride] | -71 | 67 | Anti-hypertensive activity (Procedure A) ([3]; 75 mg/kg orally): showed activity
Cc1[nH]cnc1CSc1nccn1C [Example 4, 1-Methyl-2(4-[5-methylimidazolyl]methylthio)imidazole] | -87 | 83 | Anti-hypertensive activity (Procedure B) [1]: active; Anti-secretory (Shay et al), % change in volume ([2]; Dose 10 mg/kg): -33%; inhibition in vivo at 30 mg/kg (Stress-induced erosion): 58%
C[n+]1ccccc1SCc1cccnc1 [Example 5, 1-Methyl-2-(3-pyridylmethylthio)pyridinium chloride] | -55 | 58 | Anti-hypertensive activity (Procedure A) ([3]; 75 mg/kg orally): showed activity
Cc1[nH]cnc1CSc1ccccn1 [Example 6, 2-(4-[5-Methylimidazolyl]methylthio)pyridine] |  |  | inhibition in vivo at 3 mg/kg (Stress-induced erosion; Dose 3 mg/kg): 56%; inhibition in vivo at 10 mg/kg (Stress-induced erosion; Dose 10 mg/kg): 68%; Anti-hypertensive activity (Procedure A) ([3]; 75 mg/kg orally): inactive
Cc1[nH]cnc1CSc1ccncc1 [Example 7, 4-(4-[5-Methylimidazolyl]methylthio)pyridine] | -60 | 87 | Anti-hypertensive activity (Procedure B) [1]: inactive
c1ccc(SCc2c[nH]cn2)nc1 [Example 8, 2-(4-Imidazolylmethylthio)pyridine] |  | 79 | inhibition in vivo at 30 mg/kg (Stress-induced erosion): 70%
C[n+]1ccccc1SCc1ccncc1 [Example 9, 1-Methyl-2-([(4-pyridyl)methyl]thio)pyridinium chloride] |  |  | Anti-hypertensive activity (Procedure A) ([3]; 50 mg/kg orally): showed activity
C[n+]1ccccc1SCc1ccc2ccccc2n1 [Example 10, 1-Methyl-2([(2-quinolyl)methyl]thio)pyridinium chloride] |  |  | Anti-hypertensive activity (Procedure A) ([3]; 50 mg/kg orally): showed activity
C[n+]1ccccc1SCCN1CCCCC1 [Example 11, 1-Methyl-2-[(2-piperidinoethyl)thio]pyridinium chloride] | -35 |  | 
